Source: US20050182140A1, “Antimicrobial compositions” (Microban Products Company, priority 2003, published 2005)

Columns and labels:
Format in all cases: cell-based
[1] = test system: K. pneumoniae; assay: Kirby Bauer Test Method, treated cotton samples (Example 3); conditions: agent at 800 ppm with R10800 at 0.67% and USV at 0.33%, cotton laundered 50 times
Experimental: (§1) The efficacy of Emulsion A in cotton sample material was tested, alone and in combination with other agents. The Kirby Bauer Test Method, which is a known bacterial test method, was followed. The sample size of the cotton was 38.1 mm×38.1 mm (1.5 inches×1.5 inches) square. The growth medium was Mueller-Hinton Agar. Prior to treatment, the cotton was steam sterilized at 121° C. The samples were pre-wet with sterile deionized water. The samples were incubated at 37° C.±2° C. for 18 to 24 hours. The samples were each laundered 50 times unless indicated to the contrary. NZ means that no zone of inhibition surrounded the sample. NI means that there was no inhibition of growth under the sample (if observable). The zone of inhibition was reported in millimeters.
(§2) Note that the percentages of R10800 and USV represent target loading levels on the cotton samples.

[2] = test system: S. aureus 6538; assay: as above; conditions: agent at 800 ppm with R10800 at 0.67% and USV at 0.33%, cotton laundered 50 times
Experimental: as §1, §2

[3] = test system: K. pneumoniae; assay: AATCC Test Method 147, treated cotton samples (Examples 2 and 4); conditions: Example 2; agent at 900 ppm; cotton laundered 50 times
Experimental: (§3) The efficacy of Emulsion A in cotton sample material was tested, alone and in combination with other agents. The AATCC Test Method 147, which is a known bacterial test method for textiles, was followed. The sample size of the cotton was a 25 mm×75 mm rectangle. The growth medium was Nutrient Agar. Prior to treatment, the cotton was steam sterilized at 121° C. The samples were incubated at 37° C.±2° C. for 18 to 24 hours. The samples were each laundered 50 times prior to doing the micro testing unless indicated to the contrary. NZ means that no zone of inhibition surrounded the sample. NI means that there was no inhibition of growth under the sample (if observable). The zone of inhibition was reported in millimeters.
(§4) The efficacy of Emulsion A in cotton sample material was tested, alone and in combination with other agents. The AATCC Test Method 147, which is a known test method, was followed. The sample size of the cotton was 25 mm×75 mm rectangle. The growth medium was Nutrient Agar. Prior to treatment, the cotton was steam sterilized at 121° C. The samples were incubated at 37° C.±2° C. for 18 to 24 hours. The samples were each laundered 50 times unless indicated to the contrary. NZ means that no zone of inhibition surrounded the sample. NI means there was no inhibition of growth under the sample (if observable). The zone of inhibition was reported in millimeters.

[4] = test system: S. aureus 6538; assay: as above; conditions: Example 2; agent at 900 ppm; cotton laundered 50 times
Experimental: as §3, §4

Row | Compound | Size of Zone [1] | Zone Results [1] | Size of Zone [2] | Zone Results [2] | Size of Zone [3] | Zone Results [3] | Size of Zone [4]
1 | Oc1ccccc1-c1ccccc1 [Ortho-phenyl phenol] | 0 mm | NZ/NI | 0 mm | NZ/NI | – | – | –
2 | O=C(Nc1ccc(Cl)cc1)Nc1ccc(Cl)c(Cl)c1 [Triclocarban] | 0 mm | NZ/NI | 0 mm | NZ/NI | – | – | –
3 | Zinc pyrithione [Zinc pyrithione (FPS dispersion)] | 0 mm | NZ/NI | 0 mm | NZ/I | 0 mm | NZ/NI | 2 mm
